In patent publication US20230094952A1, “Method for Culturing Hematopoietic Stem Cells” (Sumitomo Pharma Co., Ltd., priority 2019, published 2023):

Legend:
[1] = tested on: human hematopoietic stem cells (CD34-positive cells); experiment: Functional test with human cells: colony assay (CFU-GEMM) after culture; type: cell-based; settings: 1 week culture then 2 weeks MethoCult H4435, no UM171
Method: Each of artemether and the compounds of Example 1-23, Example 1-16, and Example 1-7 was prepared with the cell culture medium at nine final concentrations (0.001 μM, 0.003 μM, 0.01 μM, 0.03 μM, 0.1 μM, 0.3 μM, 1 μM, 3 μM, 10 μM), and added to the above human cells seeded after classification to a final volume of 200 μL/well to act thereon. UM171 (35 nM) was added to some of them to examine the presence or absence of synergistic effect. Thereafter, the cells were cultured in a CO2 incubator under conditions of 37° C. and 5% CO2 for 1 week, collected, and then seeded in a 96-well plate to place one CD34-positive cell in each well by using a FACS Aria III cell sorter, and cultured with a MethoCult H4435 ([…] Technologies Inc.) for 2 weeks. After culture, each well was photographed with an optical microscope (manufactured by KEYENCE CORPORATION), and the colony count was determined by visual observation and the form of each colony was determined by visual observation. Colony Formation Unit-Granulocytes, Erythroids, Macrophages, Megakaryocytes (CFU-GEMM), which are derived from myeloid progenitor cells, the erythroid burst colony-forming cells Burst Forming Unit-Erythroids (BFU-E), the granulocyte/macrophage colony-forming cells Colony Formation Unit-Granulocytes, Macrophages (CFU-GM) were determined on the basis of the forms of colonies, and the numbers were counted.

[2] = tested on: human hematopoietic stem cells (CD34-positive cells); experiment: Confirmation test with human cells: 1-week culture of cord blood Lineage-negative CD34-positive cells, flow cytometry; type: cell-based; settings: 180 cells before culture, no UM171
Excerpt: Collection of Human Cord Blood-Derived Mononuclear Cells Human cord blood-derived mononuclear cells were subjected to removal of erythrocytes and concentration treatment by using EasySep RBC Depletion Reagent (manufactured by […] Technologies Inc.) to obtain a cell population including hematopoietic stem cells.
First, a CD34-positive cell fraction was partially purified from the thus-obtained cell population including hematopoietic stem cells by using an EASYSep Human Cord Blood CD34 Positive Selection Kit II (manufactured by […] Technologies Inc.). The concentrated CD34-positive cells in a cell population enriched with hematopoietic stem cells and progenitor cells were stained with antibodies for the following cell surface markers.
Staining with the antibodies was performed at 4° C., and the cells were incubated for 30 minutes. For staining with the CD34 antibody, the cells were incubated for 90 minutes. Dead cell staining was performed with SYTOX Blue Dead Cell Stain (manufactured by Life Technologies) in accordance with a method recommended by the manufacturer.
Flow cytometry analysis and cell classification (cell sorting) were performed with a FACS Aria III cell sorter (manufactured by BD Biosciences), wherein fractions being Lineage-negative and CD34-positive were regarded as hematopoietic stem cells, and analysis was performed with the software FlowJo (manufactured by Tree Star, Inc.).
The cells after classification were seeded in a 96-well plate. […]
Each of artemether and the compounds of Example 1-23, Example 1-16, and Example 1-7 was prepared with the cell culture medium at nine final concentrations (0.001 μM, 0.003 μM, 0.01 μM, 0.03 μM, 0.1 μM, 0.3 μM, 1 μM, 3 μM, 10 μM), and added to the above human cells seeded after classification to a final volume of 200 μL/well to act thereon. UM171 (35 nM) was added to some of them to examine the presence or absence of synergistic effect. Thereafter, the cells were cultured in a CO2 incubator under conditions of 37° C. and 5% CO2 for 1 week. Viable cell counts and CD34-positive cell counts were analyzed.
After culture, the cells were stained with the antibodies for the surface markers CD34, CD11b, CD14, CD19, CD20, CD235ab, CD3, CD4, CD56, and CD8a, and the visible cell count and the ratio and post-growth cell count of a CD34 fraction (CD34^+, Lin^−) were measured by using a FACS Aria III cell sorter, and analyzed by using FlowJo (BD Biosciences). The CD34 fraction is a fraction including hematopoietic stem cells and multipotent progenitor cells as main components.

SMILES	Colony count (colony) after culture (CFU-GEMM) ([1]; compound 0.001 μM)	Colony count (colony) after culture (CFU-GEMM) ([1]; compound 0.003 μM)	Colony count (colony) after culture (CFU-GEMM) ([1]; compound 0.01 μM)	Colony count (colony) after culture (CFU-GEMM) ([1]; compound 0.03 μM)	Colony count (colony) after culture (CFU-GEMM) ([1]; compound 0.1 μM)	Colony count (colony) after culture (CFU-GEMM) ([1]; compound 0.3 μM)	Colony count (colony) after culture (CFU-GEMM) ([1]; compound 1 μM)	Colony count (colony) after culture (CFU-GEMM) ([1]; compound 3 μM)	Colony count (colony) after culture (CFU-GEMM) ([1]; compound 10 μM)	CD34-positive cell count ([2]; compound 0.001 μM)	Viable cell count ([2]; compound 0.001 μM)	CD34-positive cell count ([2]; compound 0.003 μM)	Viable cell count ([2]; compound 0.003 μM)	CD34-positive cell count ([2]; compound 0.01 μM)	Viable cell count ([2]; compound 0.01 μM)	CD34-positive cell count ([2]; compound 0.03 μM)	Viable cell count ([2]; compound 0.03 μM)	CD34-positive cell count ([2]; compound 0.1 μM)	Viable cell count ([2]; compound 0.1 μM)	CD34-positive cell count ([2]; compound 0.3 μM)	also measured
C[C@H]1[C@H](C(N)=O)O[C@@H]2O[C@@]3(C)CC[C@H]4[C@H](C)CC[C@@H]1[C@@]24OO3 [Example 1-16, (3R,5aS,6R,8aS,9R,10R,12R,12aR)-3,6,9-Trimethyldecahydro-12H-3,12-epoxypyrano[4,3-j][1,2]benzodioxepine-10-carboxamide]	130.6 colony	112.2 colony	65.1 colony	68.8 colony	40.6 colony	22.9 colony	15.7 colony	10.0 colony	8.8 colony	143 cell	1306 cell	173 cell	1224 cell	116 cell	1301 cell	130 cell	590 cell	92 cell	811 cell	32 cell	Viable cell count ([2]; compound 0.3 μM): 549 cell; CD34-positive cell count ([2]; compound 1 μM): 13 cell; Viable cell count ([2]; compound 1 μM): 368 cell; CD34-positive cell count ([2]; compound 3 μM): 13 cell; Viable cell count ([2]; compound 3 μM): 300 cell; CD34-positive cell count ([2]; compound 10 μM): 3 cell; Viable cell count ([2]; compound 10 μM): 264 cell
COCCO[C@H]1O[C@@H]2O[C@@]3(C)CC[C@H]4[C@H](C)CC[C@@H]([C@H]1C)[C@@]24OO3 [Example 1-23, (3R,5aS,6R,8aS,9R,10S,12R,12aR)-10-(2-methoxyethoxy)-3,6,9-trimethyldecahydro-12H-3,12-epoxypyrano[4,3-j][1,2]benzodioxepine]	171.3 colony	39.9 colony	76.8 colony	22.5 colony	13.4 colony	3.9 colony	12.0 colony	4.5 colony	0.0 colony	156 cell	1581 cell	65 cell	797 cell	72 cell	1152 cell	63 cell	901 cell	28 cell	537 cell	19 cell	Viable cell count ([2]; compound 0.3 μM): 462 cell; CD34-positive cell count ([2]; compound 1 μM): 16 cell; Viable cell count ([2]; compound 1 μM): 480 cell; CD34-positive cell count ([2]; compound 3 μM): 15 cell; Viable cell count ([2]; compound 3 μM): 269 cell; CD34-positive cell count ([2]; compound 10 μM): 0 cell; Viable cell count ([2]; compound 10 μM): 333 cell
C[C@H]1[C@H](c2ccco2)O[C@@H]2O[C@@]3(C)CC[C@H]4[C@H](C)CC[C@@H]1[C@@]24OO3 [Example 1-7, (3R,5aS,6R,8aS,9R,10R,12R,12aR)-10-(Furan-2-yl)-3,6,9-trimethyldecahydro-12H-3,12-epoxypyrano[4,3-j][1,2]benzodioxepine]	43.8 colony	33.8 colony	74.3 colony	83.0 colony	64.1 colony	19.5 colony	0.0 colony	0.0 colony	0.0 colony	175 cell	1314 cell	113 cell	1013 cell	150 cell	1115 cell	86 cell	905 cell	80 cell	693 cell	5 cell	Viable cell count ([2]; compound 0.3 μM): 439 cell; CD34-positive cell count ([2]; compound 1 μM): 4 cell; Viable cell count ([2]; compound 1 μM): 196 cell; CD34-positive cell count ([2]; compound 3 μM): 0 cell; Viable cell count ([2]; compound 3 μM): 202 cell; CD34-positive cell count ([2]; compound 10 μM): 0 cell; Viable cell count ([2]; compound 10 μM): 181 cell
